Measurements: patent US20060246178A1, “Fermented milk product comprising tripeptide vpp and/or ipp” (priority 2003, published 2006)

Key:
ACE = ACE (Homo sapiens, UniProt P12821); experiment: ACE inhibition activity assay with fluorogenic substrate Abz-FRK(Dnp)P-OH; format: biochemical; settings: standard, 5 μM end-concentration
Description: When ACE cleaves the R—K bond of the fluorogenic substrate, the distance of the quencher (Dnp) with regard to the fluorescent group (Abz) will be enlarged resulting in a fluorescent signal.
This signal is direct related to the ACE activity and is measured with a fluorometer.
Samples were prepared as follows:
The fermented milk was transferred to a centrifuge tube. The pH was adjusted to 4.0±0.1 by adding a few μl of 6 M HCl and centrifuged for 5-10 minutes at 4.000×g at room temperature (RT). The supernatant was transferred to a tube and the pH was adjusted to 7.0±0.1 by adding a few μl of 6 M NaOH. The pH-adjusted sample was transferred to an Eppendorf tube and centrifuged for ten minutes at 14.000 rpm at RT. The supernatant was transferred to a tube and ready for the ACE inhibition activity assay. If sample was not processed immediately, it was stored at −20° C.
The slope/second is a measure for the activity of ACE.
As a standard, Captopril (1 nM end-concentration) or IPP (5 μM end-concentration) was used.

[1] = target: Angiotensin I Converting Enzyme (ACE) (Homo sapiens, UniProt P12821); settings: literature (Kohmura 1990; Nakamura 1995); read-out: IC50, the concentration which results in 50% inhibition of the ACE activity; cited from earlier work
Sequence of Angiotensin I Converting Enzyme (ACE) (P12821 30-1306, species assumed): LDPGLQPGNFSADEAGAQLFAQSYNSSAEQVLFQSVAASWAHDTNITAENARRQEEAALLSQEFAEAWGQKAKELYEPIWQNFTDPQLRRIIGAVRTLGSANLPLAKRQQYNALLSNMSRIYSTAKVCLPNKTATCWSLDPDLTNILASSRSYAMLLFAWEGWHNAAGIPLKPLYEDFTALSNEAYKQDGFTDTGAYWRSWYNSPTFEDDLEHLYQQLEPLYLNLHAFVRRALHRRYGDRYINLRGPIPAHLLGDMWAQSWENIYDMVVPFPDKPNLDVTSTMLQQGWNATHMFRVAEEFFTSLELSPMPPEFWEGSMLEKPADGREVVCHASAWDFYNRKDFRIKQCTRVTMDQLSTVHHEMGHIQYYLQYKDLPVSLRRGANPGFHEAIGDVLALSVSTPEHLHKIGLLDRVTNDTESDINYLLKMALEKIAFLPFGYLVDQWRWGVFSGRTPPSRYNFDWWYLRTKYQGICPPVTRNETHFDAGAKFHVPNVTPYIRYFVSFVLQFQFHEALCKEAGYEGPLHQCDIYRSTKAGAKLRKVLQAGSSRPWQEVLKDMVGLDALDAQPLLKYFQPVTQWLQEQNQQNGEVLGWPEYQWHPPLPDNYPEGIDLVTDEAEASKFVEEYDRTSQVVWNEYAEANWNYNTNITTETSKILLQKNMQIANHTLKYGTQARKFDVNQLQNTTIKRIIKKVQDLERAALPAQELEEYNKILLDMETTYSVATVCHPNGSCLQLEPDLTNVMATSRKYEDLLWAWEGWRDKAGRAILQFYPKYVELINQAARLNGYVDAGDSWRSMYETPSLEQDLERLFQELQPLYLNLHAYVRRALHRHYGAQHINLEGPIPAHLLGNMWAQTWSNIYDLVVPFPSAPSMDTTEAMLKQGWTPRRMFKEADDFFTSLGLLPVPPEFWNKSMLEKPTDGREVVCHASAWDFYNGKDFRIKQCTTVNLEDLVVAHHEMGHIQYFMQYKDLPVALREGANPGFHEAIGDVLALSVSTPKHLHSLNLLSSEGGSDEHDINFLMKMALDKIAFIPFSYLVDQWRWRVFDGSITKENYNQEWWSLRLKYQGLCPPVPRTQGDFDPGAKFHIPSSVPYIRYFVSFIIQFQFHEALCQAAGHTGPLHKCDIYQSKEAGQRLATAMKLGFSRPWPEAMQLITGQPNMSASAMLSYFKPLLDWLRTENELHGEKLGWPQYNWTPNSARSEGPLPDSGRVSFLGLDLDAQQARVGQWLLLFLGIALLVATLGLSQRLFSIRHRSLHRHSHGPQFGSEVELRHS

Sequence of ACE (P12821 30-1306, species assumed): as above

Row | Substance | inhibition of the ACE activity (ACE) | IC50 [1]
1 | Ile-Pro-Pro [IPP] | about 30% | 5 µM
2 | Val-Pro-Pro [VPP] | – | 9 µM
